These results are taken from patent US20070270421A1, “Novel pyridine Derivative and Pyrimidine Derivative (1)” (priority 2004, published 2007).

Assay [1] relates to Human gastric cancer cells (MKN-45). Nature of the assay: Inhibitory activity against the proliferation of human gastric cancer cells (MKN-45). The format is cell-based. The conditions noted are these: 72 h, MKN-45, 1% FBS RPMI1640, 3 days, Cell Counting Kit-8, read-out: IC50 (concentration necessary to inhibit the cell proliferation by 50%). How it is done:
Human gastric cancer cells (MKN-45) were suspended in a 1% FBS-containing RPMI1640 medium (purchased from Sigma). The cell suspension (1×10^4 cells/ml) was added in a 96-well plate for cell culture (purchased from NUNC, Production No. 167008) at 0.1 ml/well, and then cultured in a 5% CO2 incubator (37° C.) overnight. After the culture, each well was supplied with 0.1 ml of a test substance diluted with a 1% FBS-containing RPMI1640 medium, followed by culturing in a 5% CO2 incubator (37° C.) for 3 days. After the culture, each well was supplied with 10 μl of Cell Counting Kit-8 (purchased from DOJINDO, Production No. 343-07623), followed by incubation in a 5% CO2 incubator (37° C.) for about 1.5 hrs. After the incubation, using the Plate Reader MTP-500 (Corona Electric), the absorbance of each well was determined at a measurement wavelength of 450 nm and a reference wavelength of 660 nm. The ratio (%) of absorbance of each well supplied with a test substance to absorbance of the well supplied with no test substance was calculated, and the ratio was used to calculate the concentration (IC50) of the test substance necessary to inhibit the cell proliferation by 50%.
A general note: Formazan colour is commonly taken as a measure of viable cells.

Assay [2] deals with T1, HGFR autophosphorylation (Homo sapiens, UniProt P08581).
T1 construct: endogenous in cells; host or cells: MKN-45 human gastric cancer cells
Nature of the assay: Inhibitory activity against the HGFR autophosphorylation using ELISA. The format is cell-based. The conditions noted are these: MKN-45 cells, 1 hr treatment, read-out: IC50 (concentration necessary to inhibit HGFR autophosphorylation activity by 50%). As for the experimental part:
Human gastric cancer cells (MKN-45) were suspended in a 1% FBS-containing RPMI1640 medium (purchased from Sigma). The cell suspension (1×10^5 cells/ml) was put in a 96-well plate for cell culture (purchased from NUNC, Production No. 167008) at 0.1 ml/well, and then cultured in a 5% CO2 incubator (37° C.) overnight. After the culture, from each well was removed the supernatant solution, followed by adding 0.05 ml of a 1% FBS-containing RPMI1640 medium. Then, the well was supplied with 0.05 ml of the test substance dissolved in dimethyl sulfoxide (diluted with a 1% FBS-containing RPMI1640 medium), followed by culturing in a 5% CO2 incubator (37° C.) for 1 hr. From each well was removed the supernatant, and each well was washed with 150 μl of PBS, followed by adding 100 μl of a lysis buffer (50 mM Hepes (pH 7.4), 150 mM NaCl, 10% (v/v) glycerol, 1% Triton X-100, 1.5 mM MgCl2, 1 mM EDTA (pH 8.0), 100 mM NaF, 1 mM PMSF, 10 μg/ml Aprotinin, 50 μg/ml Leupeptin, 1 μg/ml Pepstatin A and 1 mM Na3VO4). The plate was shaken at 4° C. for 1 hr to prepare the cell extract.
To a 96-well plate for ELISA (purchased from COSTAR, Production No. 3369) was added 50 μl of 60 mM bicarbonate buffer (pH 9.6) containing 50 μg/ml of an anti-phosphotyrosine antibody (PY20, purchased from Transduction Laboratory, Production No. P-11120). The plate was incubated at 4° C. overnight.
Each well of the plate prepared in 2. was washed three times with 200 μl of PBS, and supplied with 150 μl of 3% BSA/PBS, followed by incubating at room temperature for 2 hrs. Each well was washed three times with 200 μl of PBS, and supplied with 50 μl of the above cell extract, followed by incubating at 4° C. overnight. After the incubation, each well was washed three times with 250 μl of a washing solution (0.1% BSA, 20 mM Tris-HCl (pH 7.6), 137 mM NaCl, and 0.05% Tween-20), and supplied with 70 μl of anti-HGFR antibody (h-Met(C-12), purchased from Santa Cruz, Production No. sc-10) 2,000-fold diluted with a reaction solution (1% BSA, 20 mM Tris-HCl (pH 7.6), 137 mM NaCl and 0.05% Tween-20), followed by incubating at room temperature for 1 hr. The well was washed three times with 250 μl of the washing solution, and supplied with 70 μl of peroxidase-labelled anti-rabbit IgG antibody (purchased from Cell Signaling, Production No. 7074) 2,000-fold diluted with the reaction solution, followed by incubating at room temperature for 1 hr. Each well was washed three times with 250 μl of the washing solution, and supplied with 70 μl of TMB Membrane Peroxidase Substrate (purchased from Funakoshi, Production No. 50-5077-03), followed by incubating at room temperature for 10 min. Each well was supplied with 70 μl of 1 M phosphoric acid, and using the Plate Reader MTP-500 (Corona Electric), the absorbance of the well was instantly determined at a measurement wavelength of 450 nm. While defining the absorbance of a well supplied with the cell extract having no test substance as 100% HGFR autophosphorylation activity, and the absorbance of a well supplied with 50 μl of the lysis buffer as 0% HGFR autophosphorylation activity, the HGFR autophosphorylation activity (%) was calculated for each well. The concentration of the test substance was changed by several levels to calculate HGFR autophosphorylation activities (%) in respective cases, and to calculate the concentration (IC50) of the test substance necessary to inhibit HGFR autophosphorylation activity by 50%.
For orientation: ELISA stands for enzyme-linked immunosorbent assay.

SMILES strings stand for the structures.

T1 sequence (P08581 25-1390): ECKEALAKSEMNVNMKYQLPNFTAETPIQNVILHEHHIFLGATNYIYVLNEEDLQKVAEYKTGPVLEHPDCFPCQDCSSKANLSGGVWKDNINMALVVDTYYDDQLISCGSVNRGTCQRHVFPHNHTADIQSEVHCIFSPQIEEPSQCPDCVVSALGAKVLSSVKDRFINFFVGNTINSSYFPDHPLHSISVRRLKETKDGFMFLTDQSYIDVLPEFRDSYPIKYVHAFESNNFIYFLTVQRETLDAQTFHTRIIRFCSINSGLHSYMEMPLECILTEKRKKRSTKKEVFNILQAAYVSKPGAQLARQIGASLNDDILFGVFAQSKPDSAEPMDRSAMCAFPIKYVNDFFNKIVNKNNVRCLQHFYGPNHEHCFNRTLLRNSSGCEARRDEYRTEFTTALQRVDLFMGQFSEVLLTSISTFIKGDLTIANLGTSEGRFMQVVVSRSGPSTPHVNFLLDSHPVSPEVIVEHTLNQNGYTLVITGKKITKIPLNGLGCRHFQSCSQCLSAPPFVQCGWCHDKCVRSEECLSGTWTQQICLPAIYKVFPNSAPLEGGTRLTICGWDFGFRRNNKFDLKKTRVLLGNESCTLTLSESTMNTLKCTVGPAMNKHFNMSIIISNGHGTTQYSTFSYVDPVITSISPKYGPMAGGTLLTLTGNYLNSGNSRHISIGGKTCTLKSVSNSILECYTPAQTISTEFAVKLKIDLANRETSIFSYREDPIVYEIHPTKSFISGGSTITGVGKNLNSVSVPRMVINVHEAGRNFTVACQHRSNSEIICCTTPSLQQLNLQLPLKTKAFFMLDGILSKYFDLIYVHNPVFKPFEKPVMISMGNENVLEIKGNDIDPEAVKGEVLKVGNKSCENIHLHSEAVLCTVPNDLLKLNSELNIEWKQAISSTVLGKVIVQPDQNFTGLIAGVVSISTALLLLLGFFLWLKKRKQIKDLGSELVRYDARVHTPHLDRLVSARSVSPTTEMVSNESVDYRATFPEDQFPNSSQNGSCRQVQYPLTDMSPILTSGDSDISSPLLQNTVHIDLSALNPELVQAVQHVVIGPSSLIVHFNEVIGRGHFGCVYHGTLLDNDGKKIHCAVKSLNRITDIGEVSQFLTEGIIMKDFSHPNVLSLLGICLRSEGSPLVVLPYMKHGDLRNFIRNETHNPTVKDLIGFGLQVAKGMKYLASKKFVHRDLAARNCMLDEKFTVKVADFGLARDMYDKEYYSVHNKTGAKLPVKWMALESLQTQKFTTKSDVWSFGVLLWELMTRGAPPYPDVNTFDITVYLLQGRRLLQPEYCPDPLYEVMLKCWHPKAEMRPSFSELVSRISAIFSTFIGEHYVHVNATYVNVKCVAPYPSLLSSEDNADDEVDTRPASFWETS

For the compound `CN1CCC(N(C)C(=O)Nc2cc(Oc3ccc(NC(=O)CC(=O)Nc4ccc(F)cc4)cc3F)ccn2)CC1` [Example 89, N-(3-Fluoro-4-{2-[3-methyl-3-(1-methylpiperidin-4-yl)ureido]pyridin-4-yloxy}phenyl)-N′-(4-fluorophenyl)malonamide], the IC50 in assay [1] came to 86 nM; in assay [2], 49 nM.
In the case of `CN1CCCN(C(=O)Nc2cc(Oc3ccc(NC(=O)CC(=O)Nc4ccc(F)cc4)c(F)c3)ccn2)CC1` [Example 92, N-(2-Fluoro-4-{2-[(4-methyl-[1,4]diazepane-1-carbonyl)amino]pyridin-4-yloxy}phenyl)-N′-(4-fluorophenyl)malonamide], the figures for the IC50 in assay [1] and in assay [2] were 570 nM and 540 nM, respectively.
